Measured values as given in the supplement of paper PMC10307832.

Tests used:
Test in all cases: relative viability (nuclei count vs DMSO), 5 days (fraction); higher = more cells survive
Bortezomib + Luminespib = compound: CC(C)C[C@H](NC(=O)[C@H](Cc1ccccc1)NC(=O)c1cnccn1)B(O)O [Bortezomib] + CCNC(=O)c1noc(-c2cc(C(C)C)c(O)cc2O)c1-c1ccc(CN2CCOCC2)cc1 [Luminespib] (partner 0.01 µM)
Method in brief: (§1)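 One day after seeding in 1536-well plates, lung cancer cell lines were dosed by pin tool. Dosing was either single-drug or a fixed anchor-drug dose plus five library-drug doses (not always all listed) in √10 steps. After 5 days, nuclei were stained in one fix-and-stain step and counted on 4× images, and relative viability is the nuclei count of treated wells over that of vehicle wells, given as the median of duplicate plates.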

[1] = compound: CC1=CC(=NN1)NC2=CC(=NC(=N2)/C=C/C3=CC=CC=C3)N4CCN(CC4)C + Cc1nc(Nc2ncc(C(=O)Nc3c(C)cccc3Cl)s2)cc(N2CCN(CCO)CC2)n1 [Dasatinib] (partner 0.075 µM)
Method in brief: as §1

[2] = compound: CC1=CC(=NN1)NC2=CC(=NC(=N2)/C=C/C3=CC=CC=C3)N4CCN(CC4)C + Nc1ncn([C@H]2C[C@H](O)[C@@H](CO)O2)c(=O)n1 [Decitabine] (partner 2 µM)
Method in brief: as §1

Bortezomib + Lapatinib = compound: CC(C)C[C@H](NC(=O)[C@H](Cc1ccccc1)NC(=O)c1cnccn1)B(O)O [Bortezomib] + CS(=O)(=O)CCNCc1ccc(-c2ccc3ncnc(Nc4ccc(OCc5cccc(F)c5)c(Cl)c4)c3c2)o1 [Lapatinib] (partner 2 µM)
Method in brief: as §1

Cell Line	relative viability (Bortezomib + Luminespib; first compound 0.0002 µM)	relative viability (Bortezomib + Luminespib; first compound 0.000632 µM)	relative viability (Bortezomib + Luminespib; first compound 0.002 µM)	relative viability (Bortezomib + Luminespib; first compound 0.006325 µM)	relative viability (Bortezomib + Luminespib; first compound 0.02 µM)	relative viability ([1]; first compound 0.08 µM)	relative viability ([1]; first compound 0.253 µM)	relative viability ([1]; first compound 0.8 µM)	relative viability ([1]; first compound 2.53 µM)	relative viability ([1]; first compound 8 µM)	relative viability ([2]; first compound 0.08 µM)	relative viability ([2]; first compound 0.253 µM)	relative viability ([2]; first compound 0.8 µM)	relative viability ([2]; first compound 2.53 µM)	relative viability ([2]; first compound 8 µM)	relative viability (Bortezomib + Lapatinib; first compound 0.0002 µM)	relative viability (Bortezomib + Lapatinib; first compound 0.000632 µM)	relative viability (Bortezomib + Lapatinib; first compound 0.002 µM)	relative viability (Bortezomib + Lapatinib; first compound 0.006325 µM)	relative viability (Bortezomib + Lapatinib; first compound 0.02 µM)
201T	1.03	1.01	1.09	0.745	0.215	0.586	0.546	0.541	0.435	0.208	0.834	0.864	0.831	0.785	0.471	1.01	0.99	1.06	1.05	0.512
A549											0.21	0.394	0.212	0.104	0.0286	0.981	0.872	0.957	0.0567	0.0601
A-427	0.889	0.926	0.589	0.33	0.125	0.789	0.579	0.631	0.156	0.0981	0.603	0.582	0.568	0.489	0.213	1.05	0.975	1.11	1.02	0.19
ABC-1	0.439	0.523	0.262	0.252	0.227	0.496	0.692	0.522	0.207	0.145	1.02	0.954	1.1	0.811	0.268	0.941	1.06	0.605	0.606	0.495
BEN	0.314	0.665	0.568	0.249	0.184	0.339	0.306	0.32	0.257	0.164	0.633	0.835	0.706	0.381	0.337	0.72	0.74	0.61	0.339	0.114
CAL-12T	0.121	0.447	0.412	0.599	0.105	0.52	0.38	0.342	0.0924	0.0804						0.683	0.617	0.561	0.246	0.201
COR-L23	0.639	0.669	0.61	0.0526	0.058	0.423	0.445	0.493	0.143	0.0623	0.511	0.451	0.392	0.125	0.113	0.814	1.1	0.771	0.0607	0.0542
COR-L 105	0.784	0.914	0.614	0.434	0.211	0.388	0.369	0.302	0.207	0.153	0.549	0.847	0.624	0.425	0.235	0.358	0.354	0.334	0.344	0.349
Calu-6																0.961	1.03	1.02	0.138	0.109
ChaGo-K-1	0.577	0.554	0.683	0.356	0.169	0.58	0.598	0.476	0.151	0.132	0.509	0.587	0.465	0.383	0.21					
EBC-1																0.221	0.228	0.204	0.164	0.151
EKVX	0.833	0.827	0.89	0.646	0.113	0.55	0.579	0.603	0.499	0.151	0.299	0.297	0.374	0.331	0.152	0.205	0.261	0.208	0.204	0.0816
EMC-BAC-2	1.21	1.11	1.17	0.441	0.208	0.308	0.268	0.298	0.202	0.0961	0.989	0.91	0.946	0.689	0.282	0.902	0.923	0.966	0.652	0.153
EPLC-272H	0.36	0.143	0.217	0.148	0.115	0.344	0.37	0.37	0.15	0.217	0.345	0.373	0.36	0.245	0.163			1.03	0.671	0.167
H3255	0.765	0.856	1.02	0.386	0.271	0.346	0.347	0.352	0.427	0.242	0.52	0.54	0.496	0.499	0.249	0.261	0.209	0.24	0.191	0.179
HARA	0.718	0.77	0.607	0.0345	0.0465	0.26	0.236	0.221	0.183	0.0802	0.529	0.641	0.569	0.192	0.132	0.647	0.527	0.73	0.0694	0.0797
